Results reported in ChEMBL document CHEMBL3351796, “Discovery of potent and selective sirtuin 2 (SIRT2) inhibitors using a fragment-based approach” (J Med Chem, 2014).

Assays:
DU-145 = assay: cells; settings: Homo sapiens, DU-145, 48 h
Description: Cytotoxicity against human DU145 cells assessed as reduction in cell growth incubated for 48 hrs by alamar blue assay

MCF7 = assay: cells; settings: Homo sapiens, MCF7, 48 h
Description: Cytotoxicity against human MCF7 cells assessed as reduction in cell growth incubated for 48 hrs by alamar blue assay

[1] = molecular target: T1, NAD-dependent protein deacetylase sirtuin-2 (Homo sapiens, UniProt Q8IXJ6); assay: Inhibition of full length human SIRT2 expressed in Escherichia coli BL21 (DE3) cells using fluorogenic 7-amino-4-methylcoumarin (AMC)-labeled peptide by fluorescence assay
T1 sequence (Q8IXJ6 whole entry): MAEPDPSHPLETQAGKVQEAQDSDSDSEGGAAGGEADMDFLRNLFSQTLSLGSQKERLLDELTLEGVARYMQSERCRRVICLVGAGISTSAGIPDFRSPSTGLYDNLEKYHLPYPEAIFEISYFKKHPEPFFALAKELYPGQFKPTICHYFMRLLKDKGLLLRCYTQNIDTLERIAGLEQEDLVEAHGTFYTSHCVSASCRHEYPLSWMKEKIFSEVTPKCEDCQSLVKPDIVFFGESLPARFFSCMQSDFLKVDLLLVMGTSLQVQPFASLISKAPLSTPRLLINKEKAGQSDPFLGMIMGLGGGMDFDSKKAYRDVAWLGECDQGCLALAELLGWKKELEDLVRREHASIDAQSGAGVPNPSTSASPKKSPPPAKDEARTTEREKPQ

K562 = assay: cells; settings: Homo sapiens, K562, 48 h
Description: Cytotoxicity against human K562 cells assessed as reduction in cell growth incubated for 48 hrs by alamar blue assay

[2] = Apparent permeability from basolateral to apical side in MDCK2 cells at 25 uM incubated for 15 to 180 mins by HPLC method; format: ADME, cell-based, Canis lupus familiaris, MDCK-II; settings: dog, MDCK
[3] = Apparent permeability from apical to basolateral side in MDCK2 cells at 25 uM incubated for 15 to 180 mins by HPLC method; format: ADME, cell-based, Canis lupus familiaris, MDCK-II; settings: dog, MDCK

SMILES: NC(=O)c1cncc(Oc2cccc3c(NC(=O)c4ccccc4)cccc23)c1
- CC50 (DU-145): 33.3 µM
- CC50 (MCF7): 30.6 µM
- IC50 [1]: 0.0483 µM
- CC50 (K562): 26.2 µM
- Papp B→A at 25 µM [2]: 4.35 ×10⁻⁶ cm/s
- Papp A→B at 25 µM [3]: 3.84 ×10⁻⁶ cm/s
